Experimental data from ChEMBL document CHEMBL6103549, “PRMT7 in cancer: Structure, effects, and therapeutic potentials” (Eur J Med Chem, 2025).
Each block holds one compound with its values, some of them ahead of it.

What was measured:
[1] = target: T1, Protein arginine N-methyltransferase 7 (Homo sapiens, UniProt Q9NVM4); test: Inhibition of human PRMT7
T1 sequence (Q9NVM4 whole entry): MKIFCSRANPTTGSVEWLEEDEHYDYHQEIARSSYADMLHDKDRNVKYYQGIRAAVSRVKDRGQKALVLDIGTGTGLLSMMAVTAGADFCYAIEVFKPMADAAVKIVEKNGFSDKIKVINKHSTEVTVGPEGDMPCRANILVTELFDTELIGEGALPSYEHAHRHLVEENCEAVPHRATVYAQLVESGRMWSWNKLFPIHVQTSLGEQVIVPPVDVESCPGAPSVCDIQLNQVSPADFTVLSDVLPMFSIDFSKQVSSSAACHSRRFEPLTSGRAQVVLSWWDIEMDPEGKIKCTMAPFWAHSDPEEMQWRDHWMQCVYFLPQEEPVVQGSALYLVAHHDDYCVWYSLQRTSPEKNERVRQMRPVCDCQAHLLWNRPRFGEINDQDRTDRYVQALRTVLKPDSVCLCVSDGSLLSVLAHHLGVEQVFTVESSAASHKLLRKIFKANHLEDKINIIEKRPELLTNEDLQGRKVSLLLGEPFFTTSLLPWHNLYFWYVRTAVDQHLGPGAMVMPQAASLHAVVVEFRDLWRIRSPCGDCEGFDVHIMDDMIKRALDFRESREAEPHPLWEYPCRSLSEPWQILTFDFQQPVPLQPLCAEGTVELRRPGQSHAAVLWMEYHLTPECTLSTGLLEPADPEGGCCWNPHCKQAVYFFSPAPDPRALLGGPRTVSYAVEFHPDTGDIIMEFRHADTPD

[2] = target: Protein arginine N-methyltransferase 5 (Homo sapiens, UniProt O14744); test: Inhibition of human PRMT5
Sequence of Protein arginine N-methyltransferase 5 (O14744 whole entry): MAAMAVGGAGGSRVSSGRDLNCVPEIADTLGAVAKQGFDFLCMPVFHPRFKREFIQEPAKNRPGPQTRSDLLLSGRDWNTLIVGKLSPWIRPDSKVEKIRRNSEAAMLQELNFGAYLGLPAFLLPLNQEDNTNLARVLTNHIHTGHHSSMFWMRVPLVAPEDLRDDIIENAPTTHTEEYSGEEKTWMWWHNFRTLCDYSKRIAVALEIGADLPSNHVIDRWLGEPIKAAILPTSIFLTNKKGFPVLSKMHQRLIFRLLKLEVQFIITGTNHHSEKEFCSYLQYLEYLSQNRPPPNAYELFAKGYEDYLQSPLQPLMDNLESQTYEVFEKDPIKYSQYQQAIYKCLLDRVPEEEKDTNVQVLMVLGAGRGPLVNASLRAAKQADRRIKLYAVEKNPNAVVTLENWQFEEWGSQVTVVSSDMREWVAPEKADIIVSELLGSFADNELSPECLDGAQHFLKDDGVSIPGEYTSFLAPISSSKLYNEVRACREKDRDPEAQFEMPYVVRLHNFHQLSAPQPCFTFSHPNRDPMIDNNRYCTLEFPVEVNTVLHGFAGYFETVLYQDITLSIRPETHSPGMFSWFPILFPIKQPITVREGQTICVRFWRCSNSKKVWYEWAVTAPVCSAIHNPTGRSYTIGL

HepG2 = test: Antiproliferative activity against human HepG2 cells assessed as reduction in cell viability by MTT assay; type: functional, cell-based
[3] = Antiproliferative activity against human MEF cells assessed as reduction in cell viability by MTT assay; type: functional, cell-based
[4] = target: T1, Protein arginine N-methyltransferase 7; test: Inhibition of human PRMT7 in HEK293T cells assessed as reduction in HSP70 methylation; type: cell-based
[5] = target: T1, Protein arginine N-methyltransferase 7; test: Inhibition of human PRMT7 in HCT-116 cells assessed as reduction in HSP70 methylation; type: cell-based
KB = test: Antiproliferative activity against human KB cells assessed as reduction in cell viability by MTT assay; type: functional, cell-based
MCF7 = test: Antiproliferative activity against human MCF7 cells assessed as reduction in cell viability by MTT assay; type: functional, cell-based
[6] = target: T1, Protein arginine N-methyltransferase 7; test: Inhibition of human recombinant His-tagged PRMT7 extracted from Escherichia coli BL21 (DE3)
[7] = target: T1, Protein arginine N-methyltransferase 7; test: Inhibition of full length human recombinant PRMT7 extracted from Sf9 cells using […] as substrate incubated for 1 hr by TopCount scintillation proximity assay; type: cell-free

IC50 [1]: 5 µM
IC50 [2]: 50 µM
SMILES: COc1cc(-c2ncc(F)c(Nc3ccc4nc(C)cc(N)c4c3)n2)cc(OC)c1OC

IC50 (HepG2): 2.2 µM
IC50 [4]: 2.4 µM
IC50 [5]: 2.4 µM
IC50 (KB): 2.2 µM
IC50 (MCF7): 2.2 µM
SMILES: CC1=C(C)C(=O)C(C(C)(C)CC(=O)N(CCCCSC[C@H]2O[C@@H](n3cnc4c(N)ncnc43)[C@H](O)[C@@H]2O)Cc2cccc(-c3ccc(Cl)cc3)c2)=C(C)C1=O
IC50 [3]: 28.4 µM

IC50 [6]: 23.3 µM
SMILES: C/N=C(\N)N/N=C(\C)c1ccc2oc3ccc(/C(C)=N/N/C(N)=N/C)cc3c2c1

IC50 [7]: 2.5 µM
SMILES: Nc1ncnc2c1ncn2[C@@H]1O[C@H](CSCCCCNCc2cccc(-c3ccc(Cl)cc3)c2)[C@@H](O)[C@H]1O
